Paper PMC7849180 (Frontiers in Pharmacology, 2020)
Values joined by “and” are separate entries in the source; they are usually repeats but may differ in a detail not shown here. Equal entries are not always repeated.

Key:
[1] = General physicochemical properties
Description: Suzhou Zelgen Biopharmaceuticals Co., Ltd. Jaktinib Hydrochloride Tablets Chemical Drug Class 1 New Drug
Table 5. General physicochemical properties of Jaktinib hydrochloride […]
Appearance Yellow to orange crystalline powder; Odorless; Bitter taste […]
methylpyrrolidone; soluble in N, N-dimethyl formamide; […]
acetonitrile, dioxane, tert-butyl methyl ether or water
Jaktinib dihydrochloride monohydrate is a crystalline solid
Crystal Form containing two molecules of hydrogen chloride and one molecule of water of crystallization, with its crystal form being polymorph

[2] = PK, single intragastric dose; type: in vivo, rats
Description: Suzhou Zelgen Biopharmaceuticals Co., Ltd. Jaktinib Hydrochloride Tablets Chemical Drug Class 1 New Drug […]
Gender Tma x Cma x AUC0-t AUC0-∞ MRT t1/2 […]
Pharmacokinetic Study of Single-Dose Intragastric Administration in […]
After a single intragastric administration of 15.3, 30.5 and 61 mg/kg of ZG0128 […]
drug in three dose groups were 5.74, 8.33 and 12.4 μg/mL, respectively. […]
ZG0245 was lower than the proportional increase in dose, the increase in the AUC0-t of ZG0163 was directly proportional to the increase in dose, and the increase in the AUC0-t of the metabolite ZG0245 was slightly higher than the proportional increase in dose. Based on the average value of AUC0-t, the absolute bioavailability of the drug in rats receiving a single intragastric administration of 15.3 mg/kg of […] was 40.0%. […]

[3] = PK, single intravenous dose; type: in vivo, rats; details: 6.1 mg/kg ZG0128 iv
Description: Preclinical Pharmacokinetic Properties
Pharmacokinetic Study of Single Dose Intravenous Administration in […]
ZG0163 administered via intravenous injection had low plasma clearance in rats, […]
The Tmax of the metabolite
ZG0245 in rats was 1.0 h on average, and the plasma exposure (AUC0-t) was 15.0% of the original drug. The pharmacokinetic parameters obtained after the intravenous […]
Table 10. Pharmacokinetic parameters of ZG0163 in rats administered with 6.1 mg/kg of ZG0128 via intravenous injection. […]

[4] = PK, 7-day intragastric dosing; type: in vivo, beagles; details: 122 mg/animal once daily
Description: Suzhou Zelgen Biopharmaceuticals Co., Ltd. Jaktinib Hydrochloride Tablets Chemical Drug Class 1 New Drug higher than ZG0163, which was higher than the ratio of intravenous administration. […]
produced through first-pass metabolism. Within the dosage range of 61-244 mg, the AUC0-t of ZG0245 increased proportionally with the increasing dosage.
Pharmacokinetics of 7 consecutive days of multi-dose intragastric […]
After 7 consecutive days of intragastric administration (2 tablets once daily, equal […]
respectively, when compared to single-dose administration. The Cmax and AUC0-t of metabolite ZG0245 were 1.33 and 0.95 times compared to single-dose administration.
Thus, there was no significant accumulation of ZG0163 and metabolite ZG0245 after 7 days of consecutive administration. […]
intragastric administration of 61 mg ZG0163.
ZG0128, and the exposure was 93.0% of that of the medium dosage group (122 […]
of that of the medium dosage group (122 mg/animal).
Identification of Metabolites in Rat Samples
Using UPLC-UV/Q-TOF MS, potential metabolites were identified in rat plasma, urine, feces and bile, after single intragastric administration of 30.5 mg/kg ZG0128, as well as metabolites in mice plasma after single intragastric administration of 61 mg/kg ZG0128. […]

Molecule: Cl.Cl.O.[2H]C1([2H])COCC([2H])([2H])N1c1ccc(Nc2nccc(-c3ccc(C(=O)NCC#N)cc3)n2)cc1 [ZG0128, Jaktinib Dihydrochloride Monohydrate]
- Hygroscopicity [1]: Slightly hygroscopic
- Solubility ([1]; 0.1 mol/L hydrochloric acid): slightly soluble
- Solubility ([1]; dimethyl sulfoxide): freely soluble
- Solubility ([1]; ethanol): slightly soluble in ethanol
- Solubility ([1]; methanol): slightly soluble
- Solubility ([1]; water): practically insoluble

Molecule: Jaktinib
- AUC0-t ([2]; 15.3 mg/kg ZG0128, Female): 19400 ± 7500 ng·h/mL
- AUC0-∞ ([2]; 15.3 mg/kg ZG0128, Female): 19400 ± 7500 ng·h/mL
- Cmax ([2]; 15.3 mg/kg ZG0128, Female): 4820 ± 1250 ng/mL
- MRT ([2]; 15.3 mg/kg ZG0128, Female): 2.82 ± 0.60 h
- Tmax ([2]; 15.3 mg/kg ZG0128, Female): 0.5 (0.5-1.0) h
- t1/2 ([2]; 15.3 mg/kg ZG0128, Female): 0.93 ± 0.26 h
- AUC0-t ([2]; 15.3 mg/kg ZG0128, Male): 24500 ± 11300 ng·h/mL
- AUC0-∞ ([2]; 15.3 mg/kg ZG0128, Male): 24600 ± 11300 ng·h/mL
- Cmax ([2]; 15.3 mg/kg ZG0128, Male): 6660 ± 2130 ng/mL
- MRT ([2]; 15.3 mg/kg ZG0128, Male): 2.45 ± 0.29 h
- Tmax ([2]; 15.3 mg/kg ZG0128, Male): 1.0 (0.5-2.0) h
- t1/2 ([2]; 15.3 mg/kg ZG0128, Male): 0.84 ± 0.20 h
- AUC0-t ([2]; 15.3 mg/kg ZG0128, Overall): 21900 ng·h/mL
- AUC0-∞ ([2]; 15.3 mg/kg ZG0128, Overall): 22000 ± 9000 ng·h/mL
- Cmax ([2]; 15.3 mg/kg ZG0128, Overall): 5740 ng/mL
- MRT ([2]; 15.3 mg/kg ZG0128, Overall): 2.63 ± 0.47 h
- Tmax ([2]; 15.3 mg/kg ZG0128, Overall): 0.75 (0.5-2.0) h
- t1/2 ([2]; 15.3 mg/kg ZG0128, Overall): 0.89 ± 0.21 h
- absolute bioavailability ([2]; 15.3 mg/kg, by AUC0-t): 40.0%
- AUC0-t ([2]; 30.5 mg/kg ZG0128, Female): 39900 ± 13600 ng·h/mL
- AUC0-∞ ([2]; 30.5 mg/kg ZG0128, Female): 40200 ± 13200 ng·h/mL
- Cmax ([2]; 30.5 mg/kg ZG0128, Female): 9680 ± 3400 ng/mL
- MRT ([2]; 30.5 mg/kg ZG0128, Female): 3.46 ± 0.75 h
- Tmax ([2]; 30.5 mg/kg ZG0128, Female): 2.0 (2.0) h
- t1/2 ([2]; 30.5 mg/kg ZG0128, Female): 2.07 ± 2.24 h
- AUC0-t ([2]; 30.5 mg/kg ZG0128, Male): 41600 ± 19700 ng·h/mL
- AUC0-∞ ([2]; 30.5 mg/kg ZG0128, Male): 43200 ± 21900 ng·h/mL
- Cmax ([2]; 30.5 mg/kg ZG0128, Male): 6970 ± 1150 ng/mL
- MRT ([2]; 30.5 mg/kg ZG0128, Male): 3.95 ± 1.68 h
- Tmax ([2]; 30.5 mg/kg ZG0128, Male): 1.0 (1.0-2.0) h
- t1/2 ([2]; 30.5 mg/kg ZG0128, Male): 1.58 ± 0.75 h
- AUC0-t ([2]; 30.5 mg/kg ZG0128, Overall): 40800 ng·h/mL
- AUC0-∞ ([2]; 30.5 mg/kg ZG0128, Overall): 41700 ± 16200 ng·h/mL
- Cmax ([2]; 30.5 mg/kg ZG0128, Overall): 8330 ng/mL
- MRT ([2]; 30.5 mg/kg ZG0128, Overall): 3.70 ± 1.19 h
- Tmax ([2]; 30.5 mg/kg ZG0128, Overall): 2.0 (1.0-2.0) h
- t1/2 ([2]; 30.5 mg/kg ZG0128, Overall): 1.82 ± 1.52 h
- AUC0-t ([2]; 61 mg/kg ZG0128, Female): 82700 ± 31000 ng·h/mL
- AUC0-∞ ([2]; 61 mg/kg ZG0128, Female): 87300 ± 31000 ng·h/mL
- Cmax ([2]; 61 mg/kg ZG0128, Female): 12100 ± 2600 ng/mL
- MRT ([2]; 61 mg/kg ZG0128, Female): 4.87 ± 1.22 h
- Tmax ([2]; 61 mg/kg ZG0128, Female): 4.0 (1.0-6.0) h
- t1/2 ([2]; 61 mg/kg ZG0128, Female): 2.14 ± 0.31 h
- AUC0-t ([2]; 61 mg/kg ZG0128, Male): 124000 ± 58000 ng·h/mL
- AUC0-∞ ([2]; 61 mg/kg ZG0128, Male): 124000 ± 58000 ng·h/mL
- Cmax ([2]; 61 mg/kg ZG0128, Male): 12800 ± 1700 ng/mL
- MRT ([2]; 61 mg/kg ZG0128, Male): 6.20 ± 2.52 h
- Tmax ([2]; 61 mg/kg ZG0128, Male): 2.0 (2.0-8.0) h
- t1/2 ([2]; 61 mg/kg ZG0128, Male): 1.56 ± 0.59 h
- AUC0-t ([2]; 61 mg/kg ZG0128, Overall): 103000 ng·h/mL
- AUC0-∞ ([2]; 61 mg/kg ZG0128, Overall): 106000 ± 46000 ng·h/mL
- Cmax ([2]; 61 mg/kg ZG0128, Overall): 12400 ng/mL
- MRT ([2]; 61 mg/kg ZG0128, Overall): 5.54 ± 1.92 h
- Tmax ([2]; 61 mg/kg ZG0128, Overall): 3.0 (1.0-8.0) h
- t1/2 ([2]; 61 mg/kg ZG0128, Overall): 1.85 ± 0.53 h
- Tmax, range over doses ([2]; 15.3, 30.5 and 61 mg/kg ZG0128): 0.75 to 3.0 h
- plasma elimination half-life t1/2, range over doses ([2]; 15.3, 30.5 and 61 mg/kg ZG0128): 0.89 to 1.85 h
- AUC0-t ([3]; Female): 26000 ng·h/mL
- AUC0-∞ ([3]; Female): 26000 ng·h/mL
- CL ([3]; Female): 3.23 ± 0.38 mL/min/kg
- MRT ([3]; Female): 2.11 h
- Vss ([3]; Female): 0.407 ± 0.063 L/kg
- t1/2 ([3]; Female): 2.01 h
- AUC0-t ([3]; Male): 17700 ng·h/mL
- AUC0-∞ ([3]; Male): 17700 ng·h/mL
- CL ([3]; Male): 4.92 ± 1.34 mL/min/kg
- MRT ([3]; Male): 2.16 h
- Vss ([3]; Male): 0.620 ± 0.120 L/kg
- t1/2 ([3]; Male): 2.01 h
- AUC0-t ([3]; Overall): 21800 ng·h/mL
- AUC0-∞ ([3]; Overall): 21900 ng·h/mL
- MRT ([3]; Overall): 2.14 h
- t1/2 ([3]; Overall): 2.01 h
- CL ([3]; Overall, listed as ZG0163): 4.07 mL/min/kg and 4.07 ± 1.28 mL/min/kg
- Vss ([3]; Overall, listed as ZG0163): 0.514 L/kg and 0.514 ± 0.145 L/kg
- day on which steady state was reached [4]: 5 days
